From paper PMC4457528, “Identification of Novel Small Molecule Inhibitors of Oncogenic RET Kinase” (PLoS ONE, 2015) come the findings set out here.

Common to all, as to experiment: KinomeScan kinase panel, single concentration 10 µM
Type in all cases: binding

The target of test [1] is T1, KinomeScan kinase panel (Homo sapiens, UniProt Q9BUB5).
T1 construct: purchased DiscoveRx (KinomeScan)
Particulars: MKNK1, 10 µM; read-out: score (%).

The target of test [2] is T2, KinomeScan kinase panel (Homo sapiens, UniProt P17612).
T2 construct: purchased DiscoveRx (KinomeScan)
Particulars: PKAC-alpha, 10 µM; read-out: score (%).

Test [3] addresses T3, KinomeScan kinase panel (Homo sapiens, UniProt Q9UQB9).
T3 construct: purchased DiscoveRx (KinomeScan)
T3 sequence (Q9UQB9 1-309): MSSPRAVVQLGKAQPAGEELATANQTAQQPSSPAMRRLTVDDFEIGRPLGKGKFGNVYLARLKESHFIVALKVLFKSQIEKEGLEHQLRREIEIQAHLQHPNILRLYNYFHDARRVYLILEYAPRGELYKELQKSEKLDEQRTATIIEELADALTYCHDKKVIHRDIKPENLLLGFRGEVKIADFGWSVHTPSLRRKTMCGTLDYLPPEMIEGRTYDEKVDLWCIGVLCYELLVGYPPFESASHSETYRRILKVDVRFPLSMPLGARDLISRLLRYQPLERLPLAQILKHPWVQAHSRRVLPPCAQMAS
The following applies: AURKC, 10 µM; read-out: score (%).

The target in test [4] is T4, KinomeScan kinase panel (Homo sapiens, UniProt Q15746).
T4 construct: purchased DiscoveRx (KinomeScan)
T4 sequence (Q15746 whole entry): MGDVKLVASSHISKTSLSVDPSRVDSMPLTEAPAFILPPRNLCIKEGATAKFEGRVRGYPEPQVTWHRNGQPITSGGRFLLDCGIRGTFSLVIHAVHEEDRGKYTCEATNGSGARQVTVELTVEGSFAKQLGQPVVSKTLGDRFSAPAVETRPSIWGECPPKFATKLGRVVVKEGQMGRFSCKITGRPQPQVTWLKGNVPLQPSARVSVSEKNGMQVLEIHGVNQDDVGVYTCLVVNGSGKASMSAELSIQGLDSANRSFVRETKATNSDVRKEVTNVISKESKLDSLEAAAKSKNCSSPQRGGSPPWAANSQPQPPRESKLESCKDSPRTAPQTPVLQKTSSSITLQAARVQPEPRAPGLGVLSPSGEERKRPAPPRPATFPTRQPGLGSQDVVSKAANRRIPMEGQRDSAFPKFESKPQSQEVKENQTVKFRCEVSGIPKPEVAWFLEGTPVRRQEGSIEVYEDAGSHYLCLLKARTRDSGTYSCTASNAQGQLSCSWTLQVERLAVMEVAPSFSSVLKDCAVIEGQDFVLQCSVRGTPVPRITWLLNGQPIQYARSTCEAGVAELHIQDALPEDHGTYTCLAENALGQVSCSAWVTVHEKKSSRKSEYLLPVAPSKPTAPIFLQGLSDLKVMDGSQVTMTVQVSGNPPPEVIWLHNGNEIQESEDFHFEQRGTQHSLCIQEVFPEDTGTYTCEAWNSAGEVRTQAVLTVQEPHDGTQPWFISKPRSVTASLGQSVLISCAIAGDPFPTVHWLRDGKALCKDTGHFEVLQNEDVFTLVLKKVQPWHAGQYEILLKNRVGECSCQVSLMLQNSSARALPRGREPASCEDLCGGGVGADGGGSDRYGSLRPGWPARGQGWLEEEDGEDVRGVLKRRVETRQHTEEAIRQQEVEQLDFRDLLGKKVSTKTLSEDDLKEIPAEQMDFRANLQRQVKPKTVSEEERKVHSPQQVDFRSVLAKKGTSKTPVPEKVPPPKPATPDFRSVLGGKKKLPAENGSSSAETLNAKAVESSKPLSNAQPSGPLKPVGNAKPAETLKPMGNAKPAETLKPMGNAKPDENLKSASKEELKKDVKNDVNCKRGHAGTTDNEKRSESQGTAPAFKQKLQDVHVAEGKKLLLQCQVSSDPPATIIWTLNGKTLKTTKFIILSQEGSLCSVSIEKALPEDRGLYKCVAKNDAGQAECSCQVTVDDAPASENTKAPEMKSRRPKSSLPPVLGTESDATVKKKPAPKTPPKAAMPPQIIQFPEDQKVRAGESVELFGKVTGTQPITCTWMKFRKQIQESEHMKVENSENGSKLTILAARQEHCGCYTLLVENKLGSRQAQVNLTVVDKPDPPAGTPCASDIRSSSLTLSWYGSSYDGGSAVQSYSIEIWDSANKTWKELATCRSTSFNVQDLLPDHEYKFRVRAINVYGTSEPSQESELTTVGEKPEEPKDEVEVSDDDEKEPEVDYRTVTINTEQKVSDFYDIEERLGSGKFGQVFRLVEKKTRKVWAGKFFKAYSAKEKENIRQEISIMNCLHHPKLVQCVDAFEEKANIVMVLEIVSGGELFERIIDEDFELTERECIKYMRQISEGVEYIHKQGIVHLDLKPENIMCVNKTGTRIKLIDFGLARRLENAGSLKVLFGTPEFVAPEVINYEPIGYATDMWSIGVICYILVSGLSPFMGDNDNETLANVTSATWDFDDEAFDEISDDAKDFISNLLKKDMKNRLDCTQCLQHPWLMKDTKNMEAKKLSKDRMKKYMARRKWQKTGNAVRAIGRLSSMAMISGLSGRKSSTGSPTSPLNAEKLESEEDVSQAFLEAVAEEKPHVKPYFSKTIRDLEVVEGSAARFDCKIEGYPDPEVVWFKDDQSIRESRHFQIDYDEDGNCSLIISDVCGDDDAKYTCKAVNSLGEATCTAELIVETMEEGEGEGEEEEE
The following applies: MYLK, 10 µM; read-out: score (%).

Test [5] addresses T5, KinomeScan kinase panel (Homo sapiens, UniProt Q32MK0).
T5 construct: purchased DiscoveRx (KinomeScan)
T5 sequence (Q32MK0 1-819): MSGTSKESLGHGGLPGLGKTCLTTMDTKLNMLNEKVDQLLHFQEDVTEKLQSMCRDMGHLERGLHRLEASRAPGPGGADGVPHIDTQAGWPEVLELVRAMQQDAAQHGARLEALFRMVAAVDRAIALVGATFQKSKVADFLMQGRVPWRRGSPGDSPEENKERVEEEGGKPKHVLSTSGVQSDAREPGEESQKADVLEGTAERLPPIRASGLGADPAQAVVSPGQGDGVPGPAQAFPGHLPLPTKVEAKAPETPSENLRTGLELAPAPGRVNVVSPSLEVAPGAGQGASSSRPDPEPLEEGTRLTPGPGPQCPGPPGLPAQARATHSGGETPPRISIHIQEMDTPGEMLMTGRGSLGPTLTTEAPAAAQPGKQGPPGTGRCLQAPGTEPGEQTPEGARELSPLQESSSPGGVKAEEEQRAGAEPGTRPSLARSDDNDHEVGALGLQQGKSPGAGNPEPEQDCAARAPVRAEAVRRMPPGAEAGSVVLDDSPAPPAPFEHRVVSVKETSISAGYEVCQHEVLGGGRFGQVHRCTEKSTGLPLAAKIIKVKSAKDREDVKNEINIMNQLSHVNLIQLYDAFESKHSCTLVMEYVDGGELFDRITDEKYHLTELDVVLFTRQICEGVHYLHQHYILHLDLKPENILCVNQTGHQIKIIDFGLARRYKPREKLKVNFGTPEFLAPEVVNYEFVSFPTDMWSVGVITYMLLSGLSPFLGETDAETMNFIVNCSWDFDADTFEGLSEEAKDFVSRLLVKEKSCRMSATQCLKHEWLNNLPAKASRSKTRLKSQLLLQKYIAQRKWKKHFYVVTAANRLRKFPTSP
Particulars: MLCK, 10 µM; read-out: score (%).

Test [6] concerns the target T6, KinomeScan kinase panel (Homo sapiens, UniProt P51955).
T6 construct: purchased DiscoveRx (KinomeScan)
T6 sequence (P51955 1-445): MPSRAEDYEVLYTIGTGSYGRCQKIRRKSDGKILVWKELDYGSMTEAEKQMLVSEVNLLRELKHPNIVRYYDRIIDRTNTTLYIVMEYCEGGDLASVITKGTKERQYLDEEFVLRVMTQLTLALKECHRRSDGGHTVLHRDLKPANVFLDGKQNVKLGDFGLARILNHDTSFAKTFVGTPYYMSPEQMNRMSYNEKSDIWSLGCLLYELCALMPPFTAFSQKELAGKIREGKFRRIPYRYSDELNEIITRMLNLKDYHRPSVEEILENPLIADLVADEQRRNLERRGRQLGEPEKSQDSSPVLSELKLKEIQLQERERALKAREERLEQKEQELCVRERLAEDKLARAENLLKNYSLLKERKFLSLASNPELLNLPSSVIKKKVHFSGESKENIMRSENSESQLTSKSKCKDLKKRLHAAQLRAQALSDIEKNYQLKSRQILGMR
The following applies: NEK2, 10 µM; read-out: score (%).

Test [7] concerns the target T7, KinomeScan kinase panel (Homo sapiens, UniProt O00506).
T7 construct: purchased DiscoveRx (KinomeScan)
Particulars: kinase YSK1; 10 µM; read-out: score (%).

The target in test [8] is T8, KinomeScan kinase panel (Homo sapiens, UniProt Q96Q40).
T8 construct: purchased DiscoveRx (KinomeScan)
T8 sequence (Q96Q40 whole entry): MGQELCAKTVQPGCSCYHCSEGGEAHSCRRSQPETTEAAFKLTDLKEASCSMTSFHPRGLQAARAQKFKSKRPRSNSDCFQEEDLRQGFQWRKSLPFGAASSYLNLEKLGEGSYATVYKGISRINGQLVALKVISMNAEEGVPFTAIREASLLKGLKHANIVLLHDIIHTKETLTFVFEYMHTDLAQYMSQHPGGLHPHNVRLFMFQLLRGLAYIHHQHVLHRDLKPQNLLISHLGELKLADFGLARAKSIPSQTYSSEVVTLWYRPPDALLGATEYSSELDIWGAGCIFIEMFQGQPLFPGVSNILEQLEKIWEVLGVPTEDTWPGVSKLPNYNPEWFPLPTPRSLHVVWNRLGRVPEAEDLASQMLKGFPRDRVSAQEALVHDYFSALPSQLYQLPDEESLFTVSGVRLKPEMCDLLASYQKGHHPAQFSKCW
Particulars: PFTAIRE2, 10 µM; read-out: score (%).

Molecules are shown by their SMILES.

T7 sequence (O00506 whole entry): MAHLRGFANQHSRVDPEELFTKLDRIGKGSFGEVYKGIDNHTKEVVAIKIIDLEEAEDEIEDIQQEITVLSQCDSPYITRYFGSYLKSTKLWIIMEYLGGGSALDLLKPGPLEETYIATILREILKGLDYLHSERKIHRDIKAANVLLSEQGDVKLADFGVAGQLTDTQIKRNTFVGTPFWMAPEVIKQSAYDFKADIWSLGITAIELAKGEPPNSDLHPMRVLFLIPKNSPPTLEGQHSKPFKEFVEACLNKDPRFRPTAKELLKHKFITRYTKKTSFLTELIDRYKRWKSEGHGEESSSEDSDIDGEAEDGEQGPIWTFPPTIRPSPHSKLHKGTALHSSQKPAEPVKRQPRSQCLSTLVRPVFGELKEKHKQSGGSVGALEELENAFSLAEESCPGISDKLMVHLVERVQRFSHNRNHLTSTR
T1 sequence (Q9BUB5 whole entry): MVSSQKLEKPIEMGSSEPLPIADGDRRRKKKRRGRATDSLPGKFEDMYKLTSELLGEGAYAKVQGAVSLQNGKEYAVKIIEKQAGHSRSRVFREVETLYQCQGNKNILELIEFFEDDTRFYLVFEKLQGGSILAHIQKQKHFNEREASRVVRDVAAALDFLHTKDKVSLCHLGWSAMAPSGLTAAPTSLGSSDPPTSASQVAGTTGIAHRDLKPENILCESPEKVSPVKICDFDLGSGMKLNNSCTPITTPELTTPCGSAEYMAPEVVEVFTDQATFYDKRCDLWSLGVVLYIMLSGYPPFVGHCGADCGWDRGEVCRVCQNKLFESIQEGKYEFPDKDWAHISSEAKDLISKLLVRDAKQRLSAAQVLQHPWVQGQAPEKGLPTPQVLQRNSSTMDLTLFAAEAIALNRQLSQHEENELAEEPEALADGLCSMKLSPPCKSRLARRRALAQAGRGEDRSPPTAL

In the case of `CCN1CCN(Cc2ccc(NC(=O)c3ccc(C)c(NC(=O)c4cncc(-c5cccs5)c4)c3)cc2C(F)(F)F)CC1` [ALW-II-41-27], the remaining binding at 10 µM was 14% in test [1]; 7.4% in test [2]; above 30% in test [3]; above 30% in test [4]; above 30% in test [5]; above 30% in test [6]. Besides, the remaining binding at 10 µM in test [7] and in test [8] was above 30% each time.
As to `CCN1CCN(Cc2ccc(NC(=O)c3ccc(C)c(/C=C/c4cnc5[nH]ccc5c4Cl)c3)cc2C(F)(F)F)CC1` [HG-6-63-01, (E)-3-(2-(4-chloro-1H-pyrrolo[2,3-b]pyridin-5-yl)vinyl)-N-(4-((4-ethylpiperazin-1-yl)methyl)-3-(trifluoromethyl)phenyl)-4-methylbenzamide], the remaining binding at 10 µM was above 30% in test [1]; above 30% in test [2]; 0.65% in test [3]; above 30% in test [4]; 5.9% in test [5]; above 30% in test [6]. Moreover, the remaining binding at 10 µM in test [7] and in test [8] was above 30% each time.
As for `CCN1CCN(Cc2ccc(NC(=O)c3ccc(C)c(C#Cc4cccnc4)c3)cc2C(F)(F)F)CC1` [XMD15-44], the remaining binding at 10 µM was 0.25% in test [1]; 8.4% in test [2]; 13% in test [3]; above 30% in test [4]; above 30% in test [5]; above 30% in test [6]. The remaining binding at 10 µM in test [7] was 16%; in test [8], 6.4%.
